From the CheMixHub viscosity set
Several values for one entry are separate records, joined by “and”; a condition that tells them apart may be missing. Equal values may be shown once.

Experiment: xn = mol fraction of the nth substance listed
Conditions: 100 kPa

CN1CCCN(C)C1=O + O
viscosity
Conditions | 303.15 K | 308.15 K | 313.15 K | 318.15 K | 323.15 K
x1 = 0.007139 | 0.942 mPa·s | 0.848 mPa·s | 0.769 mPa·s | 0.699 mPa·s | –
x1 = 0.01508 | 1.127 mPa·s | 1.012 mPa·s | 0.919 mPa·s | 0.843 mPa·s | –
x1 = 0.0297 | 1.386 mPa·s | 1.236 mPa·s | 1.112 mPa·s | 1.002 mPa·s | –
x1 = 0.0568 | 1.979 mPa·s | 1.733 mPa·s | 1.538 mPa·s | 1.379 mPa·s | –
x1 = 0.08573 | 2.774 mPa·s | 2.371 mPa·s | 2.05 mPa·s | 1.791 mPa·s | –
x1 = 0.1227 | 3.836 mPa·s | 3.224 mPa·s | 2.741 mPa·s | 2.354 mPa·s | –
x1 = 0.1461 | 4.568 mPa·s | 3.799 mPa·s | 3.201 mPa·s | 2.728 mPa·s | –
x1 = 0.1745 | 5.342 mPa·s | 4.401 mPa·s | 3.676 mPa·s | 3.114 mPa·s | –
x1 = 0.2062 | 5.943 mPa·s | 4.87 mPa·s | 4.051 mPa·s | 3.414 mPa·s | –
x1 = 0.2453 | 6.471 mPa·s | 5.287 mPa·s | 4.386 mPa·s | 3.685 mPa·s | –
x1 = 0.2961 | 6.828 mPa·s | 5.569 mPa·s | 4.616 mPa·s | 3.878 mPa·s | –
x1 = 0.3486 | 6.796 mPa·s | 5.568 mPa·s | 4.626 mPa·s | 3.9 mPa·s | –
x1 = 0.3968 | 6.483 mPa·s | 5.332 mPa·s | 4.45 mPa·s | 3.744 mPa·s | –
x1 = 0.4616 | 6.161 mPa·s | 5.13 mPa·s | 4.326 mPa·s | 3.692 mPa·s | –
x1 = 0.5081 | 5.768 mPa·s | 4.838 mPa·s | 4.11 mPa·s | 3.531 mPa·s | –
x1 = 0.5809 | 5.129 mPa·s | 4.357 mPa·s | 3.75 mPa·s | 3.257 mPa·s | –
x1 = 0.6498 | 4.532 mPa·s | 3.892 mPa·s | 3.37 mPa·s | 2.946 mPa·s | –
x1 = 0.6917 | 4.245 mPa·s | 3.672 mPa·s | 3.202 mPa·s | 2.817 mPa·s | –
x1 = 0.797 | 3.571 mPa·s | 3.134 mPa·s | 2.772 mPa·s | 2.468 mPa·s | –
x1 = 0.8669 | 3.203 mPa·s | 2.837 mPa·s | 2.531 mPa·s | 2.274 mPa·s | –
x1 = 0.9357 | 2.957 mPa·s | 2.647 mPa·s | 2.384 mPa·s | 2.16 mPa·s | –
x1 = 0.9554 | 2.834 mPa·s | 2.533 mPa·s | 2.283 mPa·s | 2.071 mPa·s | –
x2 = 0.0016 | – | 2.348 mPa·s and 2.365 mPa·s | 2.126 mPa·s and 2.141 mPa·s | 1.937 mPa·s and 1.95 mPa·s | 1.777 mPa·s and 1.784 mPa·s
x2 = 0.0169 | – | 2.425 mPa·s | 2.191 mPa·s | 1.992 mPa·s | 1.819 mPa·s
